Molecular target: T1, Serine/threonine-protein kinase mTOR (Homo sapiens, UniProt P42345)
Test: Inhibition of mTOR (unknown origin)

IC50 [nM]	SMILES
3.8	CCNC(=O)Nc1ccc(-c2nc3c(c(N4CCOC[C@@H]4C)n2)CCN(C2COC2)C3)cc1 [RG-7603]

Molecular target: T2, Protein deacetylase HDAC6 (Homo sapiens, UniProt Q9UBN7)
T2 sequence (Q9UBN7 whole entry): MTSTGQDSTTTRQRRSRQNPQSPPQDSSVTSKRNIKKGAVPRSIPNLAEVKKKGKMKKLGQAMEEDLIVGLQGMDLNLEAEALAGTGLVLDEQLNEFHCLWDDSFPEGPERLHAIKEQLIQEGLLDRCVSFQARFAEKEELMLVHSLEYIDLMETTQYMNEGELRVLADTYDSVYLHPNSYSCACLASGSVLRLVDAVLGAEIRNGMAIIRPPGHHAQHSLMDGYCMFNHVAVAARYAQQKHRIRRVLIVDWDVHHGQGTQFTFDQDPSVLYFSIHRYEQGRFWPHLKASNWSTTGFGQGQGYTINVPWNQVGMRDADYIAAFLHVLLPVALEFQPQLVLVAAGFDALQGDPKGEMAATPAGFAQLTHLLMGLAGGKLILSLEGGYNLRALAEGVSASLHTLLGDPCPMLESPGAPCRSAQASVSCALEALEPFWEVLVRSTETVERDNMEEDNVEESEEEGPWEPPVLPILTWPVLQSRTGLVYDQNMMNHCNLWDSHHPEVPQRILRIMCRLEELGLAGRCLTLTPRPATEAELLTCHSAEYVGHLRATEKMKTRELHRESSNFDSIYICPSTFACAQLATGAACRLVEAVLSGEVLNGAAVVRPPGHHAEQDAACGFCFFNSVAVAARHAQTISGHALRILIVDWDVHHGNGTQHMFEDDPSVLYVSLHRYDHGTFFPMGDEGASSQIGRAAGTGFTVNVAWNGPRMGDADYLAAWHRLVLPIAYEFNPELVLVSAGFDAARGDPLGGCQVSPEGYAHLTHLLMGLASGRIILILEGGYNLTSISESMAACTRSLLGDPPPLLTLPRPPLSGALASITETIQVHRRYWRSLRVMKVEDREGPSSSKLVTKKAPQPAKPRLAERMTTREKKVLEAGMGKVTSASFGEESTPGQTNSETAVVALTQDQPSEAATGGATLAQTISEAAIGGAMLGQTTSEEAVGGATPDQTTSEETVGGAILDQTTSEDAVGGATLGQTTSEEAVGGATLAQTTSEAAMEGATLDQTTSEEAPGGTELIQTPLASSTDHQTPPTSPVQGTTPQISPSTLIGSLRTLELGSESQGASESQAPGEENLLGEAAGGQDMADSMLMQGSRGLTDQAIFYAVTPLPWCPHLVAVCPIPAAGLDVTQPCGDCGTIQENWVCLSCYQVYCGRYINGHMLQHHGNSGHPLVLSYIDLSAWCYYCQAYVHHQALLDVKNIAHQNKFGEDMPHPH
Test: Inhibition of HDAC6 (unknown origin)

IC50 [nM]	SMILES
2	Cn1c(=O)n(-c2ccc(C(C)(C)C#N)cc2)c2c3cc(-c4cnc5ccccc5c4)ccc3ncc21 [DACTOLISIB]

Molecular target: T1, Serine/threonine-protein kinase mTOR
Test: Inhibition of mTOR (unknown origin) at 0.5 uM relative to control

inhibition [%]	SMILES
95.4	Cn1c(=O)n(-c2ccc(C(C)(C)C#N)cc2)c2c3cc(-c4cnc5ccccc5c4)ccc3ncc21 [DACTOLISIB]
18.3	O=C(NO)c1ccc(-c2nc(N3CCCC3)c3ccc(Cl)cc3n2)cc1
68.5	C[C@@H]1COCCN1c1nc(-c2ccc(C(=O)NO)cc2)nc2ccccc12
39.7	O=C(NO)c1ccc(-c2nc(N3CCS(=O)(=O)CC3)c3ccc(Cl)cc3n2)cc1
55.4	COc1cc(OC)c2c(N3CCOC[C@@H]3C)nc(-c3ccc(C(=O)NO)cc3)nc2c1
67.6	COc1cc(OC)c2c(N3CCN(C)CC3)nc(-c3ccc(C(=O)NO)cc3)nc2c1
10.6	COc1cc(OC)c2c(N3CCC(F)(F)CC3)nc(-c3ccc(C(=O)NO)cc3)nc2c1
11.3	O=C(NO)c1ccc(-c2nc(N3CCCC3)c3ccccc3n2)cc1
23.6	O=C(NO)c1ccc(-c2nc(N3CCCCC3)c3ccccc3n2)cc1
9.7	COc1cc(OC)c2c(N3CCCC3)nc(-c3ccc(C(=O)NO)cc3)nc2c1
76.8	CN1CCN(c2nc(-c3ccc(C(=O)NO)cc3)nc3ccccc23)CC1
14.9	O=C(NO)c1ccc(-c2nc(N3CCCCC3)c3ccc(Cl)cc3n2)cc1

Continued, molecule first:

SMILES	inhibition [%]
COc1cc(OC)c2c(N3CCS(=O)(=O)CC3)nc(-c3ccc(C(=O)NO)cc3)nc2c1	34.8
O=C(NO)c1ccc(-c2nc(N3CCC(F)(F)CC3)c3ccc(Cl)cc3n2)cc1	18.2
O=C(NO)c1ccc(-c2nc(N3CCS(=O)(=O)CC3)c3ccccc3n2)cc1	37.4
C[C@H]1COCCN1c1nc(-c2ccc(C(=O)NO)cc2)nc2cc(Cl)ccc12	82.3
C[C@H]1COCCN1c1nc(-c2ccc(C(=O)NO)cc2)nc2ccccc12	67.3
COc1cc(OC)c2c(N3CCOCC3)nc(-c3ccc(C(=O)NO)cc3)nc2c1	48.9
O=C(NO)c1ccc(-c2nc(N3CCSCC3)c3ccc(Cl)cc3n2)cc1	44.9
COc1cc(OC)c2c(N3CCOC[C@H]3C)nc(-c3ccc(C(=O)NO)cc3)nc2c1	57.2
O=C(NO)c1ccc(-c2nc(N3CCOCC3)c3ccccc3n2)cc1	60.1
COc1cc(OC)c2c(N3CCSCC3)nc(-c3ccc(C(=O)NO)cc3)nc2c1	33.8
O=C(NO)c1ccc(-c2nc(N3CCSCC3)c3ccccc3n2)cc1	44.7
C[C@@H]1COCCN1c1nc(-c2ccc(C(=O)NO)cc2)nc2cc(Cl)ccc12	78.8
COc1cc(OC)c2c(N3CCCCC3)nc(-c3ccc(C(=O)NO)cc3)nc2c1	11.5
O=C(NO)c1ccc(-c2nc(N3CCC(F)(F)CC3)c3ccccc3n2)cc1	18.4
O=C(NO)c1ccc(-c2nc(N3CCOCC3)c3ccc(Cl)cc3n2)cc1	75.5

Source: ChEMBL document CHEMBL4811304, “Design, synthesis and biological evaluation of dual mTOR/HDAC6 inhibitors in MDA-MB-231 cells” (Bioorg Med Chem Lett, 2021)
